# Experimental data from patent US5462868A (priority 1991, dated 1995).
# Like-named read-outs stand apart in the source and are kept apart here.
# B1: Porcine pancreatic lipase: commercially available esterase enzyme (protein, UniProt P00591 1-450, looked up)
# Pancreatic triacylglycerol …: SEVCFPRLGCFSDDAPWAGIVQRPLKILPWSPKDVDTRFLLYTNQNQNNYQELVADPSTITNSNFRMDRKTRFIIHGFIDKGEEDWLSNICKNLFKVESVNCICVDWKGGSRTGYTQASQNIRIVGAEVAYFVEVLKSSLGYSPSNVHVIGHSLGSHAAGEAGRRTNGTIERITGLDPAEPCFQGTPELVRLDPSDAKFVDVIHTDAAPIIPNLGFGMSQTVGHLDFFPNGGKQMPGCQKNILSQIVDIDGIWEGTRDFVACNHLRSYKYYADSILNPDGFAGFPCDSYNVFTANKCFPCPSEGCPQMGHYADRFPGKTNGVSQVFYLNTGDASNFARWRYKVSVTLSGKKVTGHILVSLFGNEGNSRQYEIYKGTLQPDNTHSDEFDSDVEVGDLQKVKFIWYNNNVINPTLPRVGASKITVERNDGKVYDFCSQETVREEVLLTLNPC
# Assays:
# cocaine esterase [1] = assay type: biochemical, Pseudomonas maltophilia MB11L; conditions: 1 mM inhibitor; for % ACTIVITY RELATIVE TO CONTROL: preincubated 30° C. 10 min, 2 mM cocaine, 0.9 U/ml=100% activity; for inhibition of cocaine esterase activity (in words): 30° C., 10 min
# Protocol: (§1) The reaction was stopped by the addition of 10 μl of concentrated phosphoric acid and protein pelleted at 13,000 rpm in a minifuge. The amount of benzoic acid produced was determined by HPLC analysis of 50 μl of the supernatant and comparison to standard samples (0-1 mM) treated identically. Standard curves of peak height plotted against benzoic acid concentration were linear over the range 0-1 mM. Controls containing no enzyme solution were run to allow for background hydrolysis. An assay was considered invalid if no cocaine remained at the end of the assay (seen by HPLC). One unit of esterase activity is defined as the amount of enzyme required to produce 1 μmol of benzoic acid in 1 min at 30° C.
# The possible inhibitors tested were phenylmethylsulphonyl fluoride (PMSF), eserine, para-hydroxymercuribenzoate (pHMB), benzoate and ecgonine methyl ester.
# cocaine esterase [2] = assay type: biochemical, Pseudomonas maltophilia MB11L; conditions: for Km: read-out: Apparent Km
# Protocol: as §1
# Reactions were stopped using concentrated phosphoric acid (10 μl) to precipitate protein, which was removed by centrifugation at 13,000 rpm in a Microfuge. Rates of substrate hydrolysis were calculated from HPLC analyses of the incubations. Non-enzymic rates of hydrolysis were calculated from control samples containing no enzyme, and the enzyme assays corrected accordingly. Standard samples of the relevant free acids were used to calibrate each assay. […] Lineweaver-Burke and Eadie-Hofstee plots were used to obtain these values (see Fersht, 1985, Enzyme Structure and Mechanism, 2nd Edition, Publishers: W. H. Freeman & Co., Oxford for methods).
# [3] = Specific activity of esterases against their usual substrate; assay type: biochemical; conditions: usual substrate of each enzyme
# Protocol: Control incubations containing no enzyme were performed under each set of conditions to allow accurate assaying of enzyme activity.
# [4] = Screen of esterases for activity against cocaine (HPLC); assay type: biochemical; conditions: 2 mM cocaine in 50 mM buffer of pH suited for maximum enzyme activity
# [5] = purified cocaine esterase, 50 mM bis-tris-propane buffer pH 8.0, 30° C., 10 min, mean values
molecule,measurement,setting,value
"O=C(O)c1ccccc1 [Benzoate, benzoate]",% ACTIVITY RELATIVE TO CONTROL,cocaine esterase [1],92%
COC(=O)[C@H]1[C@@H](OC(=O)c2ccccc2)C[C@@H]2CC[C@H]1N2C [Cocaine],Apparent Vmax,cocaine esterase [2]; [5],29.5 U/mg
same,Km,cocaine esterase [2]; [5],360 µM
"COC(=O)[C@@H]1[C@H]2CC[C@@H](C[C@@H]1O)N2C [Ecgonine methyl ester, ecgonine methyl ester]",% ACTIVITY RELATIVE TO CONTROL,cocaine esterase [1],82%
"CNC(=O)Oc1ccc2c(c1)[C@]1(C)CCN(C)[C@@H]1N2C [Eserine, eserine]",inhibition of cocaine esterase activity (in words),cocaine esterase [1],relatively ineffective
same,% ACTIVITY RELATIVE TO CONTROL,cocaine esterase [1],95%
CCOC(=O)c1ccccc1O [Ethyl 2-hydroxycenzoate],Km,cocaine esterase [2]; [5],1750 µM
CCOC(=O)c1cccc(O)c1 [Ethyl 3-hydroxybenzoate],Apparent Km,cocaine esterase [2]; [5],No activity
same,Apparent Vmax,cocaine esterase [2]; [5],No activity
CCOC(=O)c1ccc(O)cc1 [Ethyl 4-hydroxybenzoate],Apparent Km,cocaine esterase [2]; [5],No activity
same,Apparent Vmax,cocaine esterase [2]; [5],No activity
CCOC(=O)c1ccccc1 [Ethyl benzoate],Apparent Vmax,cocaine esterase [2]; pH 8,65.0 U/mg
same,Km,cocaine esterase [2]; pH 8,1890 µM
"O=S(=O)(F)Cc1ccccc1 [PMSF, phenylmethylsulphonyl fluoride]",inhibition of cocaine esterase activity (in words),cocaine esterase [1],total inactivation
same,% ACTIVITY RELATIVE TO CONTROL,cocaine esterase [1],0%
"O=C(O)c1cc[c]([Hg][OH])cc1 [pHMB, para-hydroxymercuribenzoate]",inhibition of cocaine esterase activity (in words),cocaine esterase [1],relatively ineffective
same,% ACTIVITY RELATIVE TO CONTROL,cocaine esterase [1],86%
Electric eel acetyl-cholinesterase: commercially available esterase enzyme,SPECIFIC ACTIVITY (U/mg) AGAINST USUAL SUBSTRATE,[3],320 U/mg
same,SPECIFIC ACTIVITY (U/mg) AGAINST COCAINE,[4],0 U/mg
Horse serum butyryl-cholinesterase: commercially available esterase enzyme,SPECIFIC ACTIVITY (U/mg) AGAINST USUAL SUBSTRATE,[3],14 U/mg
same,SPECIFIC ACTIVITY (U/mg) AGAINST COCAINE,[4],0.098 U/mg
B1,SPECIFIC ACTIVITY (U/mg) AGAINST USUAL SUBSTRATE,[3],50 U/mg
same,SPECIFIC ACTIVITY (U/mg) AGAINST COCAINE,[4],0 U/mg
